Results reported in US20170313604A1, “Wastewater Treatment Method” (PeroxyChem LLC, priority 2016, published 2017).

System: E. coli
Test: Full scale trial of peracetic acid disinfection at a wastewater treatment plant (E. coli by IDEXX Colisure method)
Design: species or system Escherichia coli
Experimental: A full scale trial of peracetic acid (15% PAA:23% hydrogen peroxide) disinfection was performed at a wastewater treatment plant in Tennessee, USA. The wastewater contained a high level of colored, aromatic molecules discharged from industrial sources involved in the processing of cotton seeds and other sources of lignin and bio-based polymers. The water quality, and as a result the peracetic acid (PAA) demand, was heavily dependent upon the cyclic discharge rates from these industrial sources. Thus, the PAA efficacy in reducing bacterial concentrations within the wastewater was not only dependent upon the overall flow rate of the WWTP, but also upon the time-dependent water quality. The time-dependent water quality demand on PAA at the treatment plant required the inclusion of a PAA feed-forward dosing scheme to insure that the proper dosing of PAA needed to achieve the target microbial reduction was maintained.
Initial testing consisted of collecting continuous, on-line data for four wastewater quality parameters: color, chemical oxygen demand (COD), oxidation/reduction potential (ORP) and UV transmittance (UVT) at 254 nm. Peracetic acid was measured in situ via the Prominent Dulcotest CTE sensor. The sensor was a membrane-capped amperometric, two electrode sensor for the measurement of PAA in aqueous solution. […] PAA contained in the sample water diffused through the membrane, causing a potential difference between electrodes. The primary signal was converted by the amplifier electronics of the sensor into a 4-20 mA, temperature corrected, output signal, which was optimally controlled via the DULCOMETER diaLog DACa controller. Wastewater color was measured on-line utilizing a ChemScan UV-3151 Series Analyzer with a flow-through sensor. The analyzer drew a sample of wastewater from the untreated side of the disinfection channel, representative of the influent wastewater, to the main unit, which was located in the control house. Wastewater COD and % UVT (% ultraviolet transmittance at 254 nm) were measured on-line using a submersible YSI CarboVis model 701 unit. E. coli analysis were performed by a third-party laboratory, using the IDEXX Colisure method.
The data for each quality parameter then was correlated to PAA demand, accounting for wastewater flow rate. E. coli concentrations were measured at the inflow to the disinfection channel, at the mid-point of the disinfection channel and at the outflow.
Subsequent testing was performed with wastewater color as the water quality parameter for feed-forward control of the PAA dose (PAAdemand), coupled with flow pacing.
At least three cycles of water quality (minimum to maximum wastewater color) were tested with flow rates ranging from 50 to 130 MGD. Sixty three E. coli concentrations were measured during this period. […]

[1] = effluent after PAA dosing with color feed-forward control plus flow pacing, flow 50 to 130 MGD, power-outage measurement eliminated

SMILES: CC(=O)OO [PAA, peracetic acid]
- PAAset point to achieve the desired E. coli reduction (at demand neutral performance, this wastewater): 7 ppm
- E. coli concentration (all but one of sixty three measurements) (below the permitted daily maximum, the exception occurred in a power outage with no PAA dosed): < 487 cfu/100 mL
- E. coli arithmetic mean concentration [1]: 18 cfu/100 mL
- E. coli geomean concentration [1]: 12 cfu/100 mL
